{"source": "paper PMC5004293", "about": "“Characterization of FRM-36143 as a new γ-secretase modulator for the potential treatment of familial Alzheimer’s disease” (Alzheimer's Research & Therapy, 2016)", "key": {"[1]": {"tested_on": "γ-secretase", "assay": "Acute oral treatment of rats, brain and CSF Aβ peptides", "format": "in vivo, rat", "protocol": "For in vivo assessment of compound efficacy, brain tissue and cerebrospinal fluid (CSF) were collected, snap frozen in liquid nitrogen, and stored at −80 °C. Brain hemispheres were homogenized in 0.6 % diethylamine (DEA) in 50 mM NaCl containing protease inhibitor cocktail (cOmplete mini, EDTA-free, Roche) using sonication (Branson) at 23 % amplitude for 30 s. Homogenates were spun at 227,000 × g for 25 min at 4 °C. Supernatants were diluted fivefold in PBS-T (0.05 % Tween-20) containing 0.67 % BSA and added to the ELISA plate. For CSF, samples were diluted threefold in the PBS-T/BSA buffer. Detection was performed using the SuperSignal™ ELISA Femto substrate (Thermo Fisher), and luminescence was read on an EnVision plate reader (Perkin Elmer).\n(§1) Mice and rats were maintained on 12/12 h light/dark cycle with food available ad libitum. Drug treatment was prepared in a vehicle of 1 % carboxymethylcellulose (CMC):Tween80 (99.5:0.5). Twelve-week-old wild-type male mice (129S6, Taconic Biosciences, Hudson, NY, USA) or rats (Wistar, Charles River Laboratories) were administered compound p.o. without prior fasting and euthanized by CO2 asphyxiation at specified times post-dosing. After extraction of the brain, the olfactory bulb and hindbrain were removed and the cerebral hemispheres separated (mice) or cut in 4 pieces (rats). The cerebellum was removed for bioanalysis of the compound. CSF was collected from the cisterna magna and blood from a cardiac puncture."}, "[2]": {"assay": "Compound exposure in mice (LC-MS/MS, brain tissue binding)", "format": "in vivo", "settings": "mouse", "protocol": "as §1\nCerebellums were homogenized in a Mini-BeadBeater (Biospec Products, Inc., Bartlesville, OK, USA). Brain samples, plasma, and CSF were prepared for LC-MS/MS by precipitating proteins with acetonitrile and vacuum filtration in the presence of an internal standard. Standards were prepared in the corresponding matrix. FRM-36143 was resolved by HPLC (Shimadzu) using a reverse-phase C18 Kinetex column (30X2.1 mM; Phenomenex, Torrance, CA, USA). Following separation, the column effluent was introduced into a triple quadrupole mass spectrometer (API 5500, Applied Biosystems), optimized for detection of FRM-36143 and using multiple reaction monitoring with mass transition of 390.3 > 215.2.\nThe unbound fraction in brain homogenate (fu,b) was determined in triplicate in the Rapid Equilibrium Dialysis device (8000 Da molecular weight cut-off membrane, Thermo Scientific/Pierce Biotechnology, Rockford, IL, USA). Briefly, FRM-36143 stock solution (0.1 mg/mL in acetonitrile) was added to fresh mouse brain homogenate (1:4 dilution with PBS) to achieve a final concentration of 1 μg/mL. Aliquots of the brain homogenate (300 μL) were loaded into the donor side, and 500 μL of PBS into the receiver side of the dialyzer. […]"}, "[3]": {"tested_on": "Notch processing", "assay": "Notch reporter assay (HeLa 6xCBF1-Luc, NotchΔE)", "format": "cell-based, human", "settings": "Homo sapiens, overnight", "protocol": "The wild-type CBF1 binding element was cloned in front of the SV40 promoter-driven luciferase reporter construct of pGL3pro (Promega, Madison, WI, USA) using the following oligonucleotides: • CBF1 Fw (5’→3’): […] • CBF1 Rv (5’→3’): […]\nOligonucleotides were phosphorylated using T4 polynucleotide kinase and annealed (by heating to 90 °C and cooling to room temperature in a buffer containing 0.1 M NaCl). Plasmid pGL3pro was cleaved with BglII and dephosphorylated using alkaline phosphatase. The oligonucleotide pair was then ligated using T4 ligase with the linearized plasmid DNA. A clone containing 6 copies of the CBF1 element in front of the SV40 promoter was chosen. The 6xCBF1-RE/SV40 promoter was excised from pGL3 using XhoI and HindIII, and the fragment transferred to the pGL4.17 [luc2/Neo] vector (Promega) was opened with the same restriction enzymes.\nThe full length human Notch in plasmid pCMV6-XL5 (Origene, Rockville, MD, USA) was used to amplify a truncated form of Notch (NotchΔE) containing the 20-amino-acid (a.a.) signal sequence followed by 5 a.a. […]\nHeLa cells stably transfected with the 6xCBF1-Luc reporter were transiently transfected with the NotchΔE construct (4 μg DNA/10^6 cells) using Lipofectamine 2000 (Thermo Fisher, Waltham, MA, USA) in 6-well plates. […] Chemiluminescence was then read on an EnVision plate reader (Perkin Elmer)."}, "[4]": {"tested_on": "γ-secretase", "assay": "Population PK/PD modeling of mouse brain Aβ42 reduction", "format": "in vivo", "settings": "population PK/PD model, mice", "protocol": "as §1\nA population pharmacokinetic/pharmacodynamic (PK/PD) analysis was performed to obtain maximal efficacy (Emax) and concentration leading to 50 % of Emax (EC50) using the Phoenix® NLME™ (NonLinear Mixed Effect) program (version 6.3, Certara USA, Inc., St. Louis, MO). The goodness of fit was assessed based on visual inspection of curve fitting, Akaike’s information criterion (AIC), and precision of parameter estimation."}, "[5]": {"settings": "rats, 30 mg/kg p.o., 6 h post-dose"}}, "data": [{"smiles": "COc1nc(C2=NOC[C@H](c3cc4ccccc4o3)N2)ccc1-n1cnc(C)c1", "note": "[FRM-36143, (R)-5-(benzofuran-2-yl)-3-(6-methoxy-5-(4-methyl-1H-imidazol-1-yl)pyridin-2-yl)-5,6-dihydro-4H-1,2,4-oxadiazine]", "values": [{"measurement": "Aβ42 reduced to % of the baseline in rat cerebrospinal fluid", "setting": "[1]; rat CSF", "value": 58, "unit": "%"}, {"measurement": "Brain Aβ37 increase vs vehicle", "setting": "[1]; [5]", "value": 2.5, "unit": "fold"}, {"measurement": "Brain Aβ42 reduction vs vehicle", "setting": "[1]; [5]", "value": 30, "unit": "%"}, {"measurement": "CSF Aβ42 reduction vs vehicle", "setting": "[1]; [5]", "value": 58, "unit": "%"}, {"measurement": "CSF Aβ37 increase vs vehicle", "setting": "[1]; rats, 30 mg/kg p.o., 6 h post-dose, vehicle values close to detection limit", "value": 20, "unit": "fold"}, {"measurement": "concentration at 6 h", "setting": "[2]; male, 129S6, brain (unbound), 30 mg/kg oral, 6 h", "value": 427, "unit": "nM"}, {"measurement": "Unbound brain Cmax", "setting": "[2]; 10 mg/kg oral", "value": 235, "unit": "nM"}, {"measurement": "Exposure or efficacy at higher dose", "setting": "[2]; 90 mg/kg vs 30 mg/kg, data not shown", "value": "did not achieve significantly higher exposure or efficacy"}, {"measurement": "IC50", "setting": "[3]", "value": "> 10000", "unit": "nM"}, {"measurement": "Maximal brain Aβ42 reduction (Emax)", "setting": "[4]; 30 mg/kg data", "value": 51, "unit": "%"}, {"measurement": "Emax for effect on brain Aβ42", "setting": "[4]; 30 mg/kg data only, CV: 15 %", "value": 0.51}, {"measurement": "EC50", "setting": "[4]; 30 mg/kg, unbound plasma concentration, 2.5–97.5 % CI 4.6–151 nM, read-out: In vivo EC50 for Aβ42", "value": 78, "unit": "nM"}]}]}
